The results in this text go back to publication PMC12599236, “Itaconate utilisation by the human pathogen Pseudomonas aeruginosa requires uptake via the IctPQM TRAP transporter” (Biochemical Journal, 2025).

Common to all, as to assay type: binding
The target of assay [1] is T1, IctP (PA0884) (Pseudomonas aeruginosa, UniProt Q9I561).
T1 construct: SBP domain (pa0884), recombinant from E. coli
The assay is described as follows: intrinsic tryptophan fluorescence titration.

Assay [2] concerns the target T1, IctP (PA0884). The assay is described as follows: crystal structure ([…] Å); intrinsic tryptophan fluorescence titration; nanoDSF (~[…] °C shift). Background: In DSF a fluorescence change marks the thermal transition of the protein.
Assay [3] concerns the target T1, IctP (PA0884). The assay is described as above. This is another data set of the same source.

The structures appear in SMILES notation.

T1 sequence (Q9I561 entry or part of it): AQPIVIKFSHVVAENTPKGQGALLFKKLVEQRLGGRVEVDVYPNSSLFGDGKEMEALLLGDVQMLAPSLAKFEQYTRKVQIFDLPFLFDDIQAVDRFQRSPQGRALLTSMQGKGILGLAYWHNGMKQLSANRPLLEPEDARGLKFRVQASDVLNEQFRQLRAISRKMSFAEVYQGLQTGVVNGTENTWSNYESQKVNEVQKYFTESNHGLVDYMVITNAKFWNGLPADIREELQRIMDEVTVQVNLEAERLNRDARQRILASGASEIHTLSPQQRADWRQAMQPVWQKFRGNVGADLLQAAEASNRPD

Turning to `O=C(O)C[C@H](O)C(=O)O` [L-malate], on IctP (PA0884) [1], the dissociation constant (Kd) was determined as 16.2 µM.

For `O=C(O)CCC(=O)O` [succinate], at IctP (PA0884) [2], the dissociation constant Kd was found to be 32.6 µM. Take `C=C(CC(=O)O)C(=O)O` [itaconate, 2-methylenesuccinate]: the dissociation constant (Kd) at IctP (PA0884) [3] stood at 180 µM.

A word on the Kd: it is the concentration at which binding is half-saturated.
